Measured values published in patent publication US20030104945A1, “2,4-Diamino-1,3,5-triazines, their preparation, and their use as herbicides and plant growth regulators” (priority 2001, published 2003).

Tests used:
Assay type in all cases: in vivo
[1] = system: harmful plants such as Stellaria media, Lolium multiflorum, Amaranthus retroflexus, Sinapis alba, Avena sativa and Setaria viridis; test: Pre-emergence herbicidal action (greenhouse pot test); details: application rate of 1 kg or less active substance per hectare, scored after 3 to 4 weeks vs untreated controls
Source text: Seeds and rhizome sections of monocotyledonous and dicotyledonous harmful plants are placed in sandy loam in plastic pots and covered with soil. The compounds according to the invention which are formulated in the form of wettable powders or emulsion concentrates at various rates, are then applied to the surface of the covering soil as aqueous suspension or emulsion at an application rate of 600 to 800 l of water per ha (converted).
After the treatment, the pots are placed in the greenhouse and kept under good growth conditions for the weeds. Visual scoring of the plant damage or the adverse effect on emergence is done after the test plants have emerged after an experimental period of 3 to 4 weeks in comparison with untreated controls.

[2] = system: harmful plants such as Sinapis alba, Echinochloa crus-galli, Lolium multiflorum, Stellaria media, Cyperus iria, Amaranthus retroflexus, Setaria viridus and …; test: Post-emergence herbicidal action (greenhouse pot test); details: three-leaf stage, application rate of 1 kg and less of active substance per hectare, scored after approx. 3 to 4 weeks vs untreated controls
Procedure: Seeds or rhizome sections of monocotyledonous and dicotyledonous weeds are placed in sandy loam soil in plastic pots, covered with soil and grown in the greenhouse under good growth conditions. Three weeks after sowing, the experimental plants are treated at the three-leaf stage. The compounds according to the invention, which are formulated as wettable powders or as emulsion concentrates, are sprayed at various rates onto the green plant organs at an application rate of 600 to 800 l of water per ha (converted). After the experimental plants have remained in the greenhouse for approx. 3 to 4 weeks under optimal growth conditions, the effect of the compositions is scored visually in comparison with untreated controls. The substances according to the invention also have a good herbicidal action against a broad spectrum of economically important grass weeds and broad-leaved weeds when applied post-emergence.

[3] = system: harmful plants which are typical of rice crops such as, for example, Cyperus monti, Echinochloa crus-galli and Sagittaria pygmaea; test: Activity against harmful plants in rice (paddy rice conditions); details: poured into paddy water at various dosages; scored about three weeks after application vs untreated controls; also: test concentration or dose not given here
Procedure: Transplanted and seeded rice and typical grass weeds and broad-leaved weeds in rice crops are grown in the greenhouse under paddy rice conditions (depth of the paddy water: 2-3 cm) in sealed plastic pots until they have reached the three-leaf stage (Echinochloa crus-galli 1.5-leaf). They are then treated with the compounds according to the invention. To this end, the formulated active substances are suspended, dissolved or emulsified in water and the product is poured into the paddy water of the test plants at various dosages. After the treatment has been carried out thus, the test plants are placed in the greenhouse under optimal growth conditions and kept like this over the entire experimental period.
About three weeks after application, the evaluation is carried out by is of visually scoring the plant damage in comparison with untreated controls.

CCC(F)c1nc(N)nc(NC(C2CCC2)[C@@H]2C[C@H]2c2ccccc2)n1 (relative stereo) [Example 4-4]
very good herbicidal activity: herbicidal activity, visual scoring of plant damage or adverse effect on emergence [1] | herbicidal activity, visual scoring [2] | herbicidal activity, visual scoring of plant damage [3]

CC(Nc1nc(N)nc(C(C)(C)F)n1)[C@@H]1C[C@H]1c1ccccc1 (relative stereo) [Example 1-1]
very good herbicidal activity: herbicidal activity, visual scoring of plant damage or adverse effect on emergence [1] | herbicidal activity, visual scoring [2] | herbicidal activity, visual scoring of plant damage [3]
